Numbers after ± are expanded uncertainties.
Columns and labels:
[1] = 100 kPa, Liquid; for viscosity: Concentric cylinders viscometry; for mass density: Vibrating tube method
[2] = xn = mol fraction of the nth substance listed; conditions: 100 kPa, Liquid; for viscosity: Concentric cylinders viscometry; for mass density: Vibrating tube method

CC(C)O [propan-2-ol]
[1]
Conditions | mass density [kg/m3] | viscosity [mPa·s]
293.15 K | 785.4 ± 0.3 | 2.417 ± 0.051
298.15 K | 781.1 ± 0.3 | 2.083 ± 0.044
303.15 K | 776.8 ± 0.3 | 1.8 ± 0.038
308.15 K | 772.4 ± 0.3 | 1.561 ± 0.033
313.15 K | 768 ± 0.3 | 1.359 ± 0.029
318.15 K | 763.4 ± 0.3 | 1.189 ± 0.025
323.15 K | 758.8 ± 0.3 | 1.047 ± 0.023

CCC(C)O (stereo not drawn) [butan-2-ol] + CC(=O)CC(C)C
[2], x2 = 0
Conditions | mass density [kg/m3] | viscosity [mPa·s]
293.15 K | 806.7 ± 0.3 | 3.67 ± 0.077
298.15 K | 802.7 ± 0.3 | 3.04 ± 0.064
303.15 K | 798.4 ± 0.3 | 2.54 ± 0.053
308.15 K | 794.1 ± 0.3 | 2.128 ± 0.045
313.15 K | 789.8 ± 0.3 | 1.805 ± 0.038
318.15 K | 785.2 ± 0.3 | 1.538 ± 0.033
323.15 K | 780.6 ± 0.3 | 1.325 ± 0.028

CCCC(C)O (stereo not drawn) [pentan-2-ol]
[1]
Conditions | mass density [kg/m3] | viscosity [mPa·s]
293.15 K | 809.3 ± 0.3 | 3.974 ± 0.083
298.15 K | 805.3 ± 0.3 | 3.277 ± 0.069
303.15 K | 801.2 ± 0.3 | 2.717 ± 0.057
308.15 K | 797 ± 0.3 | 2.282 ± 0.048
313.15 K | 792.7 ± 0.3 | 1.931 ± 0.041
318.15 K | 788.4 ± 0.3 | 1.647 ± 0.035
323.15 K | 784 ± 0.3 | 1.419 ± 0.03

CCC(C)O (stereo not drawn) [butan-2-ol]
[1]
Conditions | mass density [kg/m3] | viscosity [mPa·s]
293.15 K | 806.7 ± 0.3 | 3.67 ± 0.077
298.15 K | 802.7 ± 0.3 | 3.04 ± 0.064
303.15 K | 798.4 ± 0.3 | 2.54 ± 0.053
308.15 K | 794.1 ± 0.3 | 2.128 ± 0.045
313.15 K | 789.8 ± 0.3 | 1.805 ± 0.038
318.15 K | 785.2 ± 0.3 | 1.538 ± 0.033
323.15 K | 780.6 ± 0.3 | 1.325 ± 0.028

CC(=O)CC(C)C [4-methylpentan-2-one]
[1]
Conditions | mass density [kg/m3] | viscosity [mPa·s]
293.15 K | 800.8 ± 0.3 | 0.588 ± 0.013
298.15 K | 796.1 ± 0.3 | 0.554 ± 0.013
303.15 K | 791.6 ± 0.3 | 0.523 ± 0.012
308.15 K | 786.9 ± 0.3 | 0.493 ± 0.011
313.15 K | 782.3 ± 0.3 | 0.463 ± 0.011
318.15 K | 777.6 ± 0.3 | 0.437 ± 0.01
323.15 K | 773 ± 0.3 | 0.41 ± 0.01

CC(=O)CC(C)C [4-methylpentan-2-one] + CCCC(C)O
[2], x1 = 1
Conditions | mass density [kg/m3] | viscosity [mPa·s]
293.15 K | 800.8 ± 0.3 | 0.588 ± 0.013
298.15 K | 796.1 ± 0.3 | 0.554 ± 0.013
303.15 K | 791.6 ± 0.3 | 0.523 ± 0.012
308.15 K | 786.9 ± 0.3 | 0.493 ± 0.011
313.15 K | 782.3 ± 0.3 | 0.463 ± 0.011
318.15 K | 777.6 ± 0.3 | 0.437 ± 0.01
323.15 K | 773 ± 0.3 | 0.41 ± 0.01

CC(C)O [propan-2-ol] + CC(=O)CC(C)C
[2], x2 = 0
Conditions | mass density [kg/m3] | viscosity [mPa·s]
293.15 K | 785.4 ± 0.3 | 2.417 ± 0.051
298.15 K | 781.1 ± 0.3 | 2.083 ± 0.044
303.15 K | 776.8 ± 0.3 | 1.8 ± 0.038
308.15 K | 772.4 ± 0.3 | 1.561 ± 0.033
313.15 K | 768 ± 0.3 | 1.359 ± 0.029
318.15 K | 763.4 ± 0.3 | 1.189 ± 0.025
323.15 K | 758.8 ± 0.3 | 1.047 ± 0.023

Reference: the NIST ThermoML archive (doi:10.1016/j.tca.2014.07.022)
